Measurements from PubChem BioAssay (NCI).
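A five-concentration, 48-hour dose response in 96-well plates underlies each endpoint, interpolated linearly between surrounding concentrations. At the TGI there is no net growth.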

Tests used:
Assay in all cases: NCI anticancer screen, dose series, 48 h
A498 renal = test system: A498 renal
ACHN renal = test system: ACHN renal
CAKI-1 renal = test system: CAKI-1 renal
EKVX NSCLC = test system: EKVX NSCLC
HT29 colon = test system: HT29 colon
M14 melanoma = test system: M14 melanoma
MCF7 breast = test system: MCF7 breast
MDA-MB-231 breast = test system: MDA-MB-231 breast
MDA-MB-435 = test system: MDA-MB-435
NCI/ADR-RES ovarian = test system: NCI/ADR-RES ovarian
OVCAR-4 ovarian = test system: OVCAR-4 ovarian
OVCAR-5 ovarian = test system: OVCAR-5 ovarian
OVCAR-8 ovarian = test system: OVCAR-8 ovarian
RPMI-8226 leukemia = test system: RPMI-8226 leukemia
SK-MEL-5 melanoma = test system: SK-MEL-5 melanoma
SK-OV-3 ovarian = test system: SK-OV-3 ovarian
SNB-19 CNS = test system: SNB-19 CNS
U251 CNS = test system: U251 CNS
UO-31 renal = test system: UO-31 renal
HS 578T breast = test system: HS 578T breast

Structure (SMILES)	TGI (A498 renal) [µM]	TGI (ACHN renal) [µM]	TGI (CAKI-1 renal) [µM]	TGI (EKVX NSCLC) [µM]	TGI (HT29 colon) [µM]	TGI (M14 melanoma) [µM]	TGI (MCF7 breast) [µM]	TGI (MDA-MB-231 breast) [µM]	TGI (MDA-MB-435) [µM]	TGI (NCI/ADR-RES ovarian) [µM]	TGI (OVCAR-4 ovarian) [µM]	TGI (OVCAR-5 ovarian) [µM]	TGI (OVCAR-8 ovarian) [µM]	TGI (RPMI-8226 leukemia) [µM]	TGI (SK-MEL-5 melanoma) [µM]	TGI (SK-OV-3 ovarian) [µM]	TGI (SNB-19 CNS) [µM]	TGI (U251 CNS) [µM]	TGI (UO-31 renal) [µM]	TGI (HS 578T breast) [µM]
CCCCOC(=O)NC(Nc1ccc(S(=O)(=O)Nc2ccc(OC)nn2)cc1)(C(F)(F)F)C(F)(F)F	> 100	> 100	> 100	> 100	> 100	> 100	> 100	> 100	> 100	> 100	> 100	> 100	> 100	> 100	> 100	> 100	> 100	> 100	> 100	
CC(Oc1ccc(OCC2CCCCC2)cc1)C(N)=O (centres undefined)		> 100			> 100	> 100					> 100		> 100		> 100	> 100		> 100	> 100	
CCCc1c[nH]c(-c2ccc(-c3cc(CCC)c(C=O)[nH]3)s2)c1	20.5	33.5			18.3	24.5					35.2		26.5		30.6	32.8	37	29.2		
ClCCN1CCOC1=Nc1ccc2c(c1)CCCC2	23	28.1	53.8	42.3	33.1	33		31.7	29.2	51.9	41.4	32.4	17.3	26.2	7.38	74.9	17.8	28.6	30.3	72
O=[N+]([O-])c1ccc2c(c1)Nc1c3ccccc3nc3cccc-2c13	> 100	> 60.5	18.8	48.7	> 51.6	16.9		> 25.4	36	17.1	11.4	20.5	40.4	> 39	5.51	8.41	47.6	18.6	28.9	> 100
c1ccc(C2SCc3nc4cc5ccccc5cc4n32)cc1 (centres undefined)		> 100	> 100	> 100	> 100	> 100	> 100	> 100	> 100	> 100	> 100	> 100	> 100	> 100		> 100	> 100	> 100	> 100	> 100
CC(=O)OC(C)c1cc2c(s1)C(=O)c1scc(C(C)OC(C)=O)c1C2=O (centres undefined)	1.26	0.628	5.04	2.2	3.53	0.238	0.605		0.0815	0.802	0.583	2.74	0.546		0.208	4.33	0.454	1.66	0.451	1.41
CC1(C)CC(=O)C2=C(C1)S/C(=C1/SC3=C(S1)C(=O)CC(C)(C)C3)S2	> 251	> 251		> 251	> 251	> 251							> 251	> 251		> 251	> 251	> 251	> 251	
CC1(C)OC(C[C@]2(C#N)C[C@H](CCl)OC(C)(C)O2)C[C@@H](C[C@]2(C#N)C[C@H](CCl)OC(C)(C)O2)O1 (some centres undefined)	> 100	> 100	> 100	> 100	> 100	> 100					> 100	> 100	> 100	> 100	> 100	> 100	> 100	> 100		
CCOP(=O)(OCC)C(N)Cc1ccc(OC)c(OC)c1 (centres undefined)	> 100	> 100	> 100		> 100	> 100	> 100	> 100	> 100	> 100	> 100	> 100	> 100	> 100	> 100		> 100	> 100	> 100	
CCCCCC[C@H]1CC(=O)C2CCCC[C@@]23CC[C@H](CCl)N13 (some centres undefined) (tested in a mixture with another compound)	> 100	> 100	> 100	> 100	> 100	> 100	96.9	> 100	> 100		> 100	> 100	64.6	61.6	50.7	> 100	> 100	> 100	> 100	60.4
O=C1CCCC/C1=C1\C(=O)Nc2cc(F)ccc21	> 100	> 100	> 100	> 100	> 100	> 100					> 100	> 100	> 100	> 100	> 100	> 100	> 100	> 100	> 100	
Cc1nc2ccccc2c(=O)n1NC(=O)c1ccc([N+](=O)[O-])cc1	> 100	> 100		> 100	> 100	> 100	> 100	> 100	> 100		> 100	> 100	> 100	> 100	> 100	> 100	> 100	> 100	> 100	> 100
CCOC(=O)C(C)(C(=O)OCC)/C(Cl)=C\Cl		> 100	> 100	> 100	> 100	> 100	> 100	> 100	> 100	> 100	> 100	> 100	> 100	> 100	> 100	> 100	> 100		> 100	> 100
O=C(CCCN1CCC2(CC1)NC(=O)c1ccccc1O2)c1ccc(F)cc1		> 100	> 100	> 100	> 100	> 100	> 100	> 100	> 100	> 100	> 100	> 100	> 100	> 100	> 100	> 100		> 100	> 100	> 100
O=C(O)c1ccc(-c2nc3ccc(Cl)cc3[nH]2)cc1			> 100	> 100	> 100	> 100	> 100	> 100		> 100			> 100	> 100	> 100	> 100	> 100	> 100	> 100	> 100
CSC1=NC(C(N)=O)C(N)N1C (centres undefined)	> 100	> 100	> 100	> 100	> 100	> 100		> 100	> 100	> 100	> 100	> 100	> 100	> 100	> 100	> 100	> 100	> 100	> 100	> 100
COc1ccc2c3c(n(Cc4ccccc4)c(=O)c2c1)-c1cc(OC)c(OC)cc1C3C (centres undefined)	97.8	43.9	> 100	52.8	> 84.8	> 100					47.7	> 100	> 100	> 100	51.5	> 80.4	> 84.9	35.8	> 100	
Cc1c(-c2nnc(-c3ccc(Cl)cc3)o2)c(=O)n(-c2ccccc2)n1C	> 100	> 100		> 100	> 100	> 100					> 100		> 100	> 100		> 100	> 100	> 100	> 100	
CC(C)OC(=O)C1=C(O)c2ccccc2S(=O)(=O)N1	> 100	> 100	> 100	> 100	> 100	> 100					> 100	> 100	> 100		> 100	> 100	> 100	> 100		
CCOC(=O)N(c1ccccc1)c1cc(=O)n2ccccc2n1	> 100	> 100	> 100	> 100	> 100		> 100	> 100	> 100	> 100	> 100	> 100	> 100	> 100	> 100	> 100	> 100	> 100	> 100	
COC(=O)[C@]12CSC[C@H]1C[C@H](c1ccccc1OC)N2	> 100	> 100	> 100	> 100		> 100	> 100	> 100	> 100	> 100	> 100	> 100	> 100	> 100	> 100	> 100	> 100	> 100	> 100	
COCc1cc2c(cc1/C(=C/[N+](=O)[O-])CS(=O)(=O)c1ccccc1)OCO2	> 100	> 100	> 100	> 100	> 100	> 100	> 100		> 100	> 100		> 100	> 100	> 100	> 100	> 100		> 100	> 100	> 100
COc1cc(-c2cc(=O)c3c(O)c(OC)c(OC)c(OC)c3o2)ccc1O	17.6	> 100		> 100		81.7						> 100	48.4	> 100	47.8	76	> 100	> 100	> 100	
CCN(CC)CCCNc1nc(=O)[nH]c(C)c1C(=O)Nc1c2ccccc2nc2ccccc12	31.8	57.4	56	74.5	26.2	> 100	> 100	51.3	> 100	45.7	86.3	> 100	59.1	47.4	29	59	62.2	> 100	32.3	
CCn1c(-c2ccc(F)cc2)nc2c1C(=O)c1ccccc1C2=O		> 100		> 100	> 100	> 100	> 100	> 100	> 100	> 100	> 100	> 100	> 100	> 100	> 100	> 100	> 100	> 100		> 100
COc1cc(C=C2N=C(c3ccccc3)N(n3c(-c4ccccc4)nc4ccccc4c3=O)C2=O)cc(OC)c1OC		82.2	> 100	83.5	78.1	75.7	60.7	53.1	55.3	> 100	96.5	> 100	51.4		56.6	91.4	72.3		> 100	51.6
O=C(N/C(=C\c1cccc([N+](=O)[O-])c1)c1nc2[nH]c(=S)[nH]c(=O)c2[nH]1)c1ccccc1	> 100	> 100	> 100	> 100	> 100	> 100					> 100	> 100	> 100	> 100	> 100	> 100	> 100	> 100	> 100	
